From patent US9890139B2, “CYP17 inhibitors/antiandrogens” (Orion Corporation, priority 2013, dated 2018)

These compounds were tested against T1, full-length human AR (Homo sapiens, UniProt P10275) (assay: AR antagonism, reporter gene assay in hAR/HEK293 cells). Details: HEK293 cells stably transfected with full-length human AR and androgen responsive luciferase reporter; co-treated with submaximal testosterone (usually 0.45 nM); 1% DMSO; triplicates.
T1 construct: expression vector encoding full-length human AR; expressed in transfected cells; host or cells: HEK293 (hAR/HEK293 cells)
T1 sequence (P10275 1-920): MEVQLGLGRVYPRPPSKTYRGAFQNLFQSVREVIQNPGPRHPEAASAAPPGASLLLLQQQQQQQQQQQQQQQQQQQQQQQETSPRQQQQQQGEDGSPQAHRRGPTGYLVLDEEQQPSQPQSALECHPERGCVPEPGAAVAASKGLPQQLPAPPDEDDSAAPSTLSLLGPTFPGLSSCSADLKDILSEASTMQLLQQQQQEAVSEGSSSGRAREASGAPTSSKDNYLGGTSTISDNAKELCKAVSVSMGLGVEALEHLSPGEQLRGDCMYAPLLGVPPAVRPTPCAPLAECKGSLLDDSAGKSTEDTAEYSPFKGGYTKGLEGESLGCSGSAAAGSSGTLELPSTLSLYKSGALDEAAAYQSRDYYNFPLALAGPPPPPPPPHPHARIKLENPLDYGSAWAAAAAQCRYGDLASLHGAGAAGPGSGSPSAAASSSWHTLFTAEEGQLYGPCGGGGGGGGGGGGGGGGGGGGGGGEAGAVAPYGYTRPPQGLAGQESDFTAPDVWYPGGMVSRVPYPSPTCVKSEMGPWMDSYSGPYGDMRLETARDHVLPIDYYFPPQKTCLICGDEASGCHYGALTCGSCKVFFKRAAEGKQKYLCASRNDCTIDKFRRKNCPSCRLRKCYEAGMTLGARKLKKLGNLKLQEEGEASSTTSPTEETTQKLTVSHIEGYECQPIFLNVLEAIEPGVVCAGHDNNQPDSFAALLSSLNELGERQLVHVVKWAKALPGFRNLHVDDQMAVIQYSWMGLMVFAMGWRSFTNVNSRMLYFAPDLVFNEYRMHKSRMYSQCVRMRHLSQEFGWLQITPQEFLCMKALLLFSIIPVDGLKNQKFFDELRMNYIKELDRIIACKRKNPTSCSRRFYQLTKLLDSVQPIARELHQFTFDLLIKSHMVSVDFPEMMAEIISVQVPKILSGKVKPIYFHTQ
Assay type: cell-based
Protocol: Antagonism of test compounds for AR was measured by reporter gene assay in human embryonic kidney (HEK293) cells stably transfected with an expression vector encoding full-length human AR and androgen responsive luciferase reporter gene construct (hAR/HEK293 cells). To determine antagonism for hAR, the cells were treated simultaneously with increasing concentrations of the test compound and submaximal concentration of testosterone (usually 0.45 nM). The final DMSO concentration was 1%. All test compounds were studied in triplicates. The cells were incubated for […] before measurement of luciferase activity using Luciferase Assay System (Promega Corporation).

SMILES | IC50 [nM]
CCN(c1ccc(C#N)c(C(F)(F)F)c1)C1CCCC(n2ccnc2)C1 (single isomer, unassigned) [Ex. 72 cis-enantiomer 2, 4-((3-(1H-imidazol-1-yl)cyclohexyl)(ethyl)amino)-2-(trifluoromethyl)benzonitrile] | 27
CCN(c1ccc(C#N)c(C(F)(F)F)c1)C1CCCC(O)(c2cccnc2)C1 (single isomer, unassigned) [Ex. 216 diastereomer 2, 4-(Ethyl(3-hydroxy-3-(pyridin-3-yl)cyclohexyl)amino)-2-(trifluoromethyl)-benzonitrile] | 28
CN(c1ccc(C#N)c(C(F)(F)F)c1)C1C=C(c2cncs2)CCC1 (single isomer, unassigned) [Ex. 232 enantiomer 1, 4-(Methyl(3-(thiazol-5-yl)cyclohex-2-en-1-yl)amino)-2-(trifluoromethyl)-benzonitrile] | 33
CCN(c1ccc(C#N)c(C(F)(F)F)c1)C1CC=C(c2cnco2)C1 (single isomer, unassigned) [Ex. 233 enantiomer 2, 4-(Ethyl(3-(oxazol-5-yl)cyclopent-3-enyl)amino)-2-(trifluoromethyl)benzonitrile] | 29
CCN(c1ccc(C#N)c(Cl)c1)C1CCCC(c2cccnc2)C1 (single isomer, unassigned; diastereomer 2) [Ex. 76 cis-diastereomer, 2-Chloro-4-(ethyl(3-(pyridin-3-yl)cyclohexyl)amino)benzonitrile] | 1
CCN(c1ccc(C#N)c(Cl)c1)C1CCCC(c2cncc(OC)c2)C1 (single isomer, unassigned; diastereomer 2) [Ex. 83 cis-diastereomer, 2-Chloro-4-(ethyl(3-(5-methoxypyridin-3-yl)cyclohexyl)amino)benzonitrile] | 16
CCN(c1ccc(C#N)c(C(F)(F)F)c1)C1CCCC(c2nnco2)C1 (single isomer, unassigned; diastereomer 4) [Ex. 19 cis-diastereomer, 4-((3-(1,3,4-Oxadiazol-2-yl)cyclohexyl)(ethyl)amino)-2-(trifluoromethyl)benzonitrile] | 65
CCN(c1ccc(C#N)c(C(F)(F)F)c1)C1CCCC(n2cccn2)C1 (single isomer, unassigned; diastereomer 4) [Ex. 48 cis-diastereomer, 4-((-3-(1H-Pyrazol-1-yl)cyclohexyl)(ethyl)amino)-2-(trifluoromethyl)benzonitrile] | 24
CCN(c1ccc(C#N)c(C(F)(F)F)c1)C1CCCC(c2nnn(C)n2)C1 (single isomer, unassigned; isomer 4) [Ex. 11 cis of 2,5-isomer, 4-(Ethyl(3-(2-methyl-2H-tetrazol-5-yl)cyclohexyl)amino)-2-(trifluoromethyl)benzonitrile] | 26
CCN(c1ccc(C#N)c(C(F)(F)F)c1)C1CCC=C(c2ccncc2)C1 (centres unmarked) [Ex. 77, 4-(Ethyl(3-(pyridin-4-yl)cyclohex-3-en-1-yl)amino)-2-(trifluoromethyl)benzonitrile] | 40
CCN(c1cc(F)c(C#N)c(Cl)c1)C1CCC=C(c2cccnc2)C1 (centres unmarked) [Ex. 132, 2-Chloro-4-(ethyl(3-(pyridin-3-yl)cyclohex-3-en-1-yl)amino)-6-fluorobenzonitrile] | 7
CCN(c1ccc(C#N)c(C(F)(F)F)c1)C1C=C(n2cncn2)CCC1 (centres unmarked) [Ex. 210, 4-((3-(1H-1,2,4-triazol-1-yl)cyclohex-2-en-1-yl)(ethyl)amino)-2-(trifluoromethyl)benzonitrile] | 23
CCN(c1ccc(C#N)c(C(F)(F)F)c1)C1CCCC(n2ccnn2)C1 (stereo not drawn) [Ex. 223, 4-((3-(1H-1,2,3-triazol-1-yl)cyclohexyl)(ethyl)amino)-2-(trifluoromethyl)-benzonitrile (cis-diastereomer)] | 79
CN(c1ccc(C#N)c(C(F)(F)F)c1)[C@@H]1C=C(n2ccnc2)[C@@H](O)CC1(C)C [Ex. 262, 4-(((1R,4S)-4-hydroxy-3-(1H-imidazol-1-yl)-6,6-dimethylcyclohex-2-en-1-yl)(methyl)-amino)-2-(trifluoromethyl)benzonitrile] | 89

What follows are compounds tested against T2, 17,20 lyase (CYP17) (Homo sapiens, UniProt P05093) (assay: 17,20 lyase (CYP17) inhibition, acetic acid release assay (AARA) on H295R cells). Details: human H295R adrenocortical carcinoma cells; overnight (16-19 h) with 17α-[21-3H]hydroxypregnenolone; 3H-acetic acid release; 1% DMSO; quadruplicates; read-out: CYP17 inhibition IC50.
T2 construct: endogenous in cells; host or cells: H295R human adrenocortical carcinoma cells
T2 sequence (P05093 1-508): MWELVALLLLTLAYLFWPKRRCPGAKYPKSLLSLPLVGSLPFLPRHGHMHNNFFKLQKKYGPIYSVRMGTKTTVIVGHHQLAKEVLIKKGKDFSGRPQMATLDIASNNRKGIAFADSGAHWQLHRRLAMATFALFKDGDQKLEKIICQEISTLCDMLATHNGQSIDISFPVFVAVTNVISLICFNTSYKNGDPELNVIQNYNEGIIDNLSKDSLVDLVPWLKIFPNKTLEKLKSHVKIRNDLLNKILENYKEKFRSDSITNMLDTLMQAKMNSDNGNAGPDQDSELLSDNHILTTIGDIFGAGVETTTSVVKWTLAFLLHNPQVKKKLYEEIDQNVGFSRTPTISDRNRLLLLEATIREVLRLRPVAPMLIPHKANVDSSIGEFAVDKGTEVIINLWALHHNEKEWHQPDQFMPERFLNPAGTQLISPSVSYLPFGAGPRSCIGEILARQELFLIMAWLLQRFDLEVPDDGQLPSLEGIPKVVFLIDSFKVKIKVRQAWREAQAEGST
Assay type: cell-based
Protocol: The ability of the test compounds to inhibit 17,20 lyase catalysed conversion of 17α-hydroxypregnenolone to dehydroepiandrosterone and acetic acid was measured by acetic acid release assay (AARA) on human H295R adrenocortical carcinoma cell line (Grigoryev, D. N. et al., Analytical Biochemistry 1999; 267:319-330). […] The final DMSO concentration was 1%. Cell culture medium was extracted with dextran-coated charcoal suspension (Isomaa, V. et al., Endocrinology 1982; 111(3):833-843). ^3H-acetic acid was determined by mixing 100 μl of supernatant fraction in 200 μl of scintillation fluid (OptiPhase SuperMix, Perkin Elmer). Radioactivity was measured using a Microbeta scintillation counter (1450 MicroBeta Trilux, Wallac). All the test compounds were studied in quadruplicates.

SMILES | IC50 [nM]
CN(c1ccc(C#N)c(Cl)c1)C1CC(c2c[nH]cn2)=CCC1(C)C (single isomer, unassigned) [Ex. 2 enantiomer 1, 4-((3-(1H-imidazol-4-yl)-6,6-dimethylcyclohex-3-enyl)(methyl)amino)-2-chlorobenzonitrile] | 27
CN(c1ccc(C#N)c(C(F)(F)F)c1)C1C=C(n2ccnc2)CCC1 (single isomer, unassigned) [Ex. 6 enantiomer 1, 4-((3-(1H-imidazol-1-yl)cyclohex-2-enyl)(methyl)amino)-2-(trifluoromethyl)benzonitrile] | 74
CCN(c1ccc(C#N)c(C(F)F)c1)C1C=C(n2ccnc2)CCC1(C)C (single isomer, unassigned) [Ex. 31 enantiomer 1, 4-((3-(1H-imidazol-1-yl)-6,6-dimethylcyclohex-2-enyl)(ethyl)amino)-2-(difluoromethyl)benzonitrile] | 23
CN(c1ccc(C#N)c(C(F)(F)F)c1)C1CC(n2ccnc2)CCC1(C)C (single isomer, unassigned) [Ex. 47 cis-enantiomer 3, 4-((5-(1H-Imidazol-1-yl)-2,2-dimethylcyclohexyl)(methyl)amino)-2-(trifluoromethyl)benzonitrile] | 18
CN(c1ccc(C#N)c(C(F)(F)F)c1)C1C(O)C(c2c[nH]cn2)=CCC1(C)C (single isomer, unassigned) [Ex. 245, 4-{[2-Hydroxy-3-(1H-imidazol-4-yl)-6,6-dimethylcyclohex-3-enyl](methyl)-amino}-2-(trifluoromethyl)benzonitrile] | 97
CN(c1ccc(C#N)c(C(F)(F)F)c1)C1CC(c2c[nH]cn2)=CCC1(C)C (single isomer, unassigned; diastereomer 1) [Ex. 244 diastereomer 1, 4-{[3-(1H-Imidazol-4-yl)-6,6-dimethylcyclohex-3-enyl](methyl)amino}-2-(trifluoromethyl)benzonitrile] | 116
CCN(c1cc(F)c(C#N)c(F)c1)C1CCCC(n2ccnc2)C1 (single isomer, unassigned; diastereomer 4) [Ex. 12 cis-diastereomer] | 18
CCN(c1ccc(C#N)c(C(F)(F)F)c1)C1CCC=C(c2cccnc2)C1(C)C (centres unmarked) [Ex. 97, 4-((2,2-dimethyl-3-(pyridin-3-yl)cyclohex-3-en-1-yl)(ethyl)amino)-2-(trifluoromethyl)benzonitrile] | 66
CCN(c1ccc(C#N)c(C(F)(F)F)c1)C1CCC=C(c2c[nH]cn2)C1(C)C (centres unmarked) [Ex. 100, 4-((3-(1H-imidazol-4-yl)-2,2-dimethylcyclohex-3-en-1-yl)(ethyl)amino)-2-(trifluoromethyl)benzonitrile] | 36
